Measured values published in patent US9969699B2, “Cancer cell growth inhibitor, anticancer agent, and method for screening same, as well as novel compound” (Microbial Chemistry Research Foundation, priority 2014, dated 2018).

Assays:
[1] = system: mDia; settings: in vitro, reported in NPL 1; cited from earlier work
[2] = system: NIH3T3/EGFR vIII cells; experiment: 3D cell culture step (environment without adhesion scaffold), proliferation of NIH3T3/EGFR vIII cells; format: cell-based, mouse
[3] = system: NIH3T3 cells; experiment: 2D cell culture step (environment with adhesion scaffold), proliferation of NIH3T3 cells; format: cell-based; settings: Mus musculus, 72 h; NIH3T3 cells, TC-treated plate, 3 days, […]-GLO; read-out: IC50 2D cell culture step
Description: Note that, as a negative control, the NIH3T3 cells at 2×10^3 cells/100 were seeded to the same plate in a volume of 100 μL per well and cultured at 37° C. in the presence of 5% CO2 for 3 days without the addition of the test substance.
Note that, Dulbecco's Modified Eagle Medium supplemented with 5% FBS was used for the culture.
A cell proliferation inhibition rate in the 2D cell culture step was calculated according to (Expression 2) below. Cell proliferation inhibition rate(%)=(1−D/E)×100 (Expression 2)
In the (Expression 2), D denotes the number of viable NIH3T3 cells when the test substance was added, and E denotes the number of viable NIH3T3 cells when the test substance was not added.

[4] = system: NIH3T3/EGFR vIII cell-transplanted tumor
[5] = system: NIH3T3/EGFRWT cells; experiment: 3D cell culture step, NIH3T3/EGFRWT cells in EGF-including medium; format: cell-based, mouse
Description: After the 3 days of culture, the number of viable cells was counted by […]-GLO (trademark) Luminescent Cell Viability Assay (available from Promega), which was a method for quantitating ATP in viable cells. A cell proliferation inhibition rate in the 3D cell culture step was calculated according to (Expression 3) below. Cell proliferation inhibition rate(%)=(1−X/Y)×100 (Expression 3)
In the (Expression 3), X denotes the number of viable cells when the test substance was added, and Y denotes the number of viable cells when the test substance was not added.

[6] = system: NIH3T3/EGFRWT cell-transplanted tumor
Description: Note that, “*” denotes t<0.05.

[7] = 30 mg/kg intraperitoneally once a day, day 1 to day 17

Nc1ccc(Br)cc1-c1nc2ccccc2[nH]c1=O [Structural Formula (1), 3-(2-amino-5-bromophenyl)-2(1H)-quinoxalinone]
inhibition of mDia-mediated actin assembly [1]: inhibit mDia-mediated actin assembly in vitro
cell proliferation inhibiting activity compared with AG1478, Gefitinib and Erlotinib ([2]; 3D cell culture step): more significant cell proliferation inhibiting activity
IC50 ([2]; Mus musculus, 72 h, NIH3T3/EGFR vIII cells, Ultra Low Attachment plate, 3 days, […]-GLO): 12 nM
inhibiting activity against scaffold-independent proliferation capacity ([2]; Test Example 3, NIH3T3/EGFR vIII cells): exhibited an inhibiting activity
IC50 [3]: > 10000 nM
tumor weight versus negative control group ([4]; 30 mg/kg intraperitoneally once a day, 17 days after transplantation, t<0.05): significantly different
mouse body weight (weight loss) [4, 7]: weight loss was not observed
toxicity [4, 7]: no toxicity
tumor proliferation inhibiting activity [4, 7]: exhibited the tumor proliferation inhibiting activity
tumor proliferation inhibiting activity compared with Gefitinib ([4]; 30 mg/kg intraperitoneally vs Gefitinib 100 mg/kg orally): comparable
inhibition of proliferation of the NIH3T3/EGFRWT cells ([5]; 3D cell culture step, EGF 50 ng/mL in medium): inhibited proliferation
inhibiting activity against scaffold-independent proliferation capacity ([5]; Test Example 3, NIH3T3/EGFRWT cells, EGF-including medium): exhibited an inhibiting activity
tumor proliferation inhibiting activity [6, 7]: exhibited the tumor proliferation inhibiting activity
tumor proliferation inhibiting activity compared with Gefitinib ([6]; 30 mg/kg intraperitoneally vs Gefitinib 200 mg/kg orally): comparable
